Tested on: T1, laccase from C. lunata MLK46 (MLK46 laccase)
T1 construct: gene EC 1.10.3.2; secreted native enzyme purified from culture filtrate (ammonium sulphate, DEAE-Sepharose)
Assay: spectrophotometric oxidation assay, Lineweaver-Burk
Assay type: biochemical, Curvularia lunata
Conditions: free enzyme, O2 as electron acceptor, pH and temperature of kinetics not clearly stated ("stated conditions")

Row | Structure (SMILES) | Km [mM] | Km (A420, standard assay at 50 °C) [mM]
1 | COc1ccccc1O [guaiacol] | 10.3 | 
2 | Oc1c(Cl)cccc1Cl [2,6-dichlorophenol] | 5.55 | 
3 | COc1cc(-c2ccc(N)c(OC)c2)ccc1N [o-dianisidine] | 2.7 | 
4 | CCn1c(=NN=c2sc3cc(S(=O)(=O)O)ccc3n2CC)sc2cc(S(=O)(=O)O)ccc21 [ABTS, 2,2’-azino-bis(3-ethylbenzothiazoline-6-sulfonic acid)] |  | 4.17

— article PMC12024561, “Production, Biochemical Characterization, and Application of Laccase from Halophilic Curvularia lunata MLK46 Recovered from Mangrove Rhizosphere” (Biology, 2025)
